Patent US10131652B2, “Pyrimidinyloxy benzene derivatives as herbicides” (E. I. DU PONT DE NEMOURS AND COMPANY, priority 2014, dated 2018)

Assays:
Type in all cases: in vivo
[1] = test system: blackgrass (Alopecurus myosuroides); assay: Test D pre-/postemergence plant response
Description: (§1) Seeds of plant species selected from blackgrass (Alopecurus myosuroides), Italian ryegrass (Lolium multiflorum), winter wheat (Triticum aestivum), galium (catchweed bedstraw, Galium aparine), corn (Zea mays), large (Lg) crabgrass (Digitaria sanguinalis), giant foxtail (Setaria faberii), johnsongrass (Sorghum halepense), lambsquarters (Chenopodium album), morningglory (Ipomoea coccinea), yellow nutsedge (Cyperus esculentus), pigweed (Amaranthus retroflexus), ragweed (common ragweed, Ambrosia elatior), soybean (Glycine max), bamyardgrass (Echinochloa crus-galli), oilseed rape (Brassica napus), waterhemp (common waterhemp, Amaranthus rudis), and velvetleaf (Abutilon theophrasti) were planted into a blend of loam soil and sand and treated preemergence with test chemicals formulated in a non-phytotoxic solvent mixture which included a surfactant. At the same time, plants selected from these crop and weed species and also kochia (Kochia scoparia), wild oat (Avena fatua), and chickweed (common chickweed, Stellaria media) were planted in pots containing Redi-Earth® planting medium (Scotts Company, 14111 Scottslawn Road, Marysville, Ohio 43041) comprising spaghnum peat moss, vermiculite, wetting agent and starter nutrients and treated with postemergence applications of test chemicals formulated in the same manner. Plants ranged in height from 2 to 18 cm (1- to 4-leaf stage) for postemergence treatments. Treated plants and controls were maintained in a greenhouse for 13 to 15 days, after which time all species were compared to controls and visually evaluated. Plant response ratings, summarized in Table D, are based on a scale of 0 to 100 where 0 is no effect and 100 is complete control. A dash (-) response means no test result.

[2] = test system: giant foxtail (Setaria faberii); assay: Test D pre-/postemergence plant response
Description: as §1

[3] = test system: ragweed (common ragweed, Ambrosia elatior); assay: Test D pre-/postemergence plant response
Description: as §1

[4] = test system: waterhemp (common waterhemp, Amaranthus rudis); assay: Test D pre-/postemergence plant response
Description: as §1

soybean (Glycine max) = assay: Test D pre-/postemergence plant response
Description: as §1

[5] = test system: pigweed (Amaranthus retroflexus); assay: Test D pre-/postemergence plant response
Description: as §1

[6] = test system: morningglory (Ipomoea coccinea); assay: Test D pre-/postemergence plant response
Description: as §1

[7] = test system: yellow nutsedge (Cyperus esculentus); assay: Test D pre-/postemergence plant response
Description: as §1

[8] = test system: barnyardgrass (Echinochloa crus-galli); assay: Test D pre-/postemergence plant response
Description: as §1

[9] = test system: large (Lg) crabgrass (Digitaria sanguinalis); assay: Test D pre-/postemergence plant response
Description: as §1

[10] = test system: johnsongrass (Sorghum halepense); assay: Test D pre-/postemergence plant response
Description: as §1

[11] = test system: giant foxtail (Setaria faberii); assay: Test B pre-/postemergence plant response
Procedure, shortened: (§2)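 Evaluation is visual, about 10 days after application, rating injury from 0 (none) to 100 (complete control) relative to untreated controls. Application was a preemergence soil spray on seeded pots or a postemergence spray on one- to two-leaf plants.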

[12] = test system: pigweed (Amaranthus retroflexus); assay: Test B pre-/postemergence plant response
Procedure, shortened: as §2

corn (Zea mays) = assay: Test B pre-/postemergence plant response
Procedure, shortened: as §2

[13] = test system: wheat (Triticum aestivum); assay: Test B pre-/postemergence plant response
Procedure, shortened: as §2

[14] = test system: barnyardgrass (Echinochloa crus-galli); assay: Test B pre-/postemergence plant response
Procedure, shortened: as §2

[15] = Postemergence, 16 g ai/ha, scale 0 to 100 (0 no effect, 100 complete control)
[16] = Postemergence, 31 g ai/ha, scale 0 to 100 (0 no effect, 100 complete control)
[17] = Postemergence, 62 g ai/ha, scale 0 to 100, 0 no effect, 100 complete control
[18] = Postemergence, 125 g ai/ha, scale 0 to 100, 0 no effect, 100 complete control
[19] = Preemergence, 16 g ai/ha, scale 0 to 100 (0 no effect, 100 complete control)
[20] = Preemergence, 31 g ai/ha, scale 0 to 100 (0 no effect, 100 complete control)
[21] = Preemergence, 62 g ai/ha, scale 0 to 100 (0 no effect, 100 complete control)
[22] = 125 g ai/ha, postemergence, 0 to 100 scale, 0 no effect, 100 complete control
[23] = Postemergence, 500 g ai/ha, 0 to 100 scale (0 no effect, 100 complete control)
[24] = Preemergence, 125 g ai/ha, 0 to 100 scale where 0 is no effect and 100 is complete control
[25] = Preemergence, 500 g ai/ha, 0 to 100 scale where 0 is no effect and 100 is complete control

Cc1cc(-c2ccccc2Oc2ncc(Cl)cn2)on1 [Compound 58]
Blackgrass plant response rating [1, 15]: 0
Blackgrass plant response rating [1, 16]: 0
Plant response rating, Blackgrass [1, 17]: 0
Plant response rating, Blackgrass [1, 18]: 5
Plant response rating (scale 0 to 100), Blackgrass ([1]; Preemergence, 125 g ai/ha): 95
Plant response rating, Blackgrass [1, 19]: 0
Plant response rating, Blackgrass [1, 20]: 5
Plant response rating, Blackgrass [1, 21]: 80
Foxtail, Giant plant response rating [2, 15]: 0
Foxtail, Giant plant response rating [2, 16]: 0
Plant response rating, Foxtail, Giant [2, 17]: 15
Plant response rating, Foxtail, Giant [2, 18]: 30
Plant response rating (scale 0 to 100), Foxtail, Giant ([2]; Preemergence, 125 g ai/ha): 98
Plant response rating, Foxtail, Giant [2, 19]: 0
Plant response rating, Foxtail, Giant [2, 20]: 15
Plant response rating, Foxtail, Giant [2, 21]: 85
Ragweed plant response rating [3, 15]: 20
Ragweed plant response rating [3, 16]: 45
Plant response rating, Ragweed [3, 17]: 65
Plant response rating, Ragweed [3, 18]: 60
Plant response rating (scale 0 to 100), Ragweed ([3]; Preemergence, 125 g ai/ha): 100
Plant response rating, Ragweed [3, 19]: 100
Plant response rating, Ragweed [3, 20]: 35
Plant response rating, Ragweed [3, 21]: 75
Waterhemp plant response rating [4, 15]: 35
Waterhemp plant response rating [4, 16]: 40
Plant response rating, Waterhemp [4, 17]: 55
Plant response rating, Waterhemp [4, 18]: 75
Plant response rating (scale 0 to 100), Waterhemp ([4]; Preemergence, 125 g ai/ha): 100
Plant response rating, Waterhemp [4, 19]: 100
Plant response rating, Waterhemp [4, 20]: 100
Plant response rating, Waterhemp [4, 21]: 100
Soybean plant response rating (soybean (Glycine max); [15]): 55
Soybean plant response rating (soybean (Glycine max); [16]): 40
Plant response rating, Soybean (soybean (Glycine max); [17]): 60
Plant response rating, Soybean (soybean (Glycine max); [18]): 75
Plant response rating (scale 0 to 100), Soybean (soybean (Glycine max); Preemergence, 125 g ai/ha): 85
Plant response rating, Soybean (soybean (Glycine max); [19]): 30
Plant response rating, Soybean (soybean (Glycine max); [20]): 35
Plant response rating, Soybean (soybean (Glycine max); [21]): 80
Pigweed plant response rating [5, 15]: 20
Pigweed plant response rating [5, 16]: 25
Plant response rating, Pigweed [5, 17]: 40
Plant response rating, Pigweed [5, 18]: 75
Plant response rating (scale 0 to 100), Pigweed ([5]; Preemergence, 125 g ai/ha): 100
Plant response rating, Pigweed [5, 19]: 50
Plant response rating, Pigweed [5, 20]: 100
Plant response rating, Pigweed [5, 21]: 100
Morningglory plant response rating [6, 15]: 20
Morningglory plant response rating [6, 16]: 45
Plant response rating, Morningglory [6, 17]: 45
Plant response rating, Morningglory [6, 18]: 65
Plant response rating (scale 0 to 100), Morningglory ([6]; Preemergence, 125 g ai/ha): 45
Plant response rating, Morningglory [6, 19]: 10
Plant response rating, Morningglory [6, 20]: 25
Plant response rating, Morningglory [6, 21]: 0
Nutsedge, Yellow plant response rating [7, 15]: 0
Nutsedge, Yellow plant response rating [7, 16]: 0
Plant response rating, Nutsedge, Yellow [7, 17]: 0
Plant response rating, Nutsedge, Yellow [7, 18]: 0
Plant response rating (scale 0 to 100), Nutsedge, Yellow ([7]; Preemergence, 125 g ai/ha): 15
Plant response rating, Nutsedge, Yellow [7, 19]: 0
Plant response rating, Nutsedge, Yellow [7, 20]: 0
Plant response rating, Nutsedge, Yellow [7, 21]: 0
Barnyardgrass plant response rating [8, 15]: 0
Barnyardgrass plant response rating [8, 16]: 0
Plant response rating, Barnyardgrass [8, 17]: 0
Plant response rating, Barnyardgrass [8, 18]: 5
Plant response rating (scale 0 to 100), Barnyardgrass ([8]; Preemergence, 62 g ai/ha): 65
Plant response rating (scale 0 to 100), Barnyardgrass ([8]; Preemergence, 125 g ai/ha): 80
Plant response rating, Barnyardgrass [8, 19]: 5
Plant response rating, Barnyardgrass [8, 20]: 5
Crabgrass, Large plant response rating [9, 15]: 5
Crabgrass, Large plant response rating [9, 16]: 5
Plant response rating, Crabgrass, Large [9, 17]: 5
Plant response rating, Crabgrass, Large [9, 18]: 5
Plant response rating (scale 0 to 100), Crabgrass, Large ([9]; Preemergence, 125 g ai/ha): 100
Plant response rating, Crabgrass, Large [9, 19]: 25
Plant response rating, Crabgrass, Large [9, 20]: 90
Plant response rating, Crabgrass, Large [9, 21]: 100
Johnsongrass plant response rating [10, 15]: 0
Johnsongrass plant response rating [10, 16]: 0
Plant response rating, Johnsongrass [10, 17]: 0
Plant response rating, Johnsongrass [10, 18]: 5
Plant response rating (scale 0 to 100), Johnsongrass ([10]; Preemergence, 125 g ai/ha): 50
Plant response rating, Johnsongrass [10, 19]: 10
Plant response rating, Johnsongrass [10, 20]: 10
Plant response rating, Johnsongrass [10, 21]: 20
Plant response rating, Foxtail, Giant [11, 22]: 70
Plant response rating, Foxtail, Giant [11, 23]: 90
Plant response rating, Foxtail, Giant [11, 24]: 90
Plant response rating, Foxtail, Giant [11, 25]: 100
Plant response rating, Pigweed [12, 22]: 100
Plant response rating, Pigweed [12, 23]: 100
Plant response rating, Pigweed [12, 24]: 100
Plant response rating, Pigweed [12, 25]: 100
Plant response rating, Corn (corn (Zea mays); [22]): 0
Plant response rating, Corn (corn (Zea mays); [23]): 50
Plant response rating, Wheat [13, 22]: 0
Plant response rating, Wheat [13, 23]: 50
Plant response rating, Barnyardgrass [14, 22]: 70
Plant response rating, Barnyardgrass [14, 23]: 90
Plant response rating, Barnyardgrass [14, 24]: 60
Plant response rating, Barnyardgrass [14, 25]: 100
